Tests used:
Conditions in all cases: 48 h
NOMO1 [1] = assay: cell viability relative to DMSO control; higher = less cytotoxic
Procedure, shortened: (§1)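 Before seeding, each leukemia line was adapted for at least four passages in each medium. NOMO1 or SEM cells (500 cells/well) and P12-Ichikawa cells (1000 cells/well) went into 1536-well plates at 5 μl, then received library compounds in DMSO by pin dosing across 11 threefold concentrations, 47 μM to 0.79 nM. Readout was CellTiter-Glo One luminescence after 48 h at 37°C, and viability is given as a per-plate percentage of DMSO wells, with cell-free wells as background.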

P12-Ichikawa [2] = assay: as above
Procedure, shortened: as §1

SEM cells [3] = assay: as above
Procedure, shortened: as §1

NOMO1 [4] = assay: AUC of viability dose-response curve (% viability x log10 dose units); higher = less sensitive
Procedure, shortened: (§2)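 Leukemia cells adapted to each medium were seeded in 1536-well plates (500 or 1000 cells/well). They were dosed with library compounds in DMSO at 11 threefold doses, 47 μM to 0.79 nM, for 48 h at 37°C. CellTiter-Glo One luminescence was normalised per plate to DMSO and cell-free wells. Area under the curve was integrated by trapezoidal rule over log10 doses on a four-parameter log-logistic fit; curves exceeding full viability were scaled and curves failing quality control removed.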

P12-Ichikawa [5] = assay: as above
Procedure, shortened: as §2

SEM cells [6] = assay: as above
Procedure, shortened: as §2

CC(C)(C)NC(=O)[C@@H]1CN(Cc2cccnc2)CCN1C[C@@H](O)C[C@@H](Cc1ccccc1)C(=O)N[C@H]1c2ccccc2C[C@H]1O.O=S(=O)(O)O
cell viability [%]
Conditions	NOMO1 [1]	P12-Ichikawa [2]	SEM cells [3]
HPLM + 10% dialyzed FBS, 0.000781 µM	103	102	73.5
HPLM + 10% dialyzed FBS, 0.00234 µM	122	114	89.2
HPLM + 10% dialyzed FBS, 0.00702 µM	111	115	93.5
HPLM + 10% dialyzed FBS, 0.0211 µM	108	120	100
HPLM + 10% dialyzed FBS, 0.0632 µM	117	122	94.1
HPLM + 10% dialyzed FBS, 0.19 µM	105	115	96.5
HPLM + 10% dialyzed FBS, 0.569 µM	106	121	104
HPLM + 10% dialyzed FBS, 1.71 µM	127	114	90.9
HPLM + 10% dialyzed FBS, 5.12 µM	122	112	93.3
HPLM + 10% dialyzed FBS, 15.4 µM	130	104	90.3
HPLM + 10% dialyzed FBS, 46.1 µM	90.9	72.6	78.7
RPMI 5 mM glucose + 10% FBS, 0.000781 µM	112	92.1	109
RPMI 5 mM glucose + 10% FBS, 0.00234 µM	112	103	99.5
RPMI 5 mM glucose + 10% FBS, 0.00702 µM	128	99.2	104
RPMI 5 mM glucose + 10% FBS, 0.0211 µM	128	111	114
RPMI 5 mM glucose + 10% FBS, 0.0632 µM	120	116	107
RPMI 5 mM glucose + 10% FBS, 0.19 µM	119	116	108
RPMI 5 mM glucose + 10% FBS, 0.569 µM	132	116	112
RPMI 5 mM glucose + 10% FBS, 1.71 µM	136	117	122
RPMI 5 mM glucose + 10% FBS, 5.12 µM	133	109	95.6
RPMI 5 mM glucose + 10% FBS, 15.4 µM	130	98	92.1
RPMI 5 mM glucose + 10% FBS, 46.1 µM	107	66.1	54.5
RPMI 5 mM glucose + 10% dialyzed FBS, 0.000781 µM	99.5	105	102
RPMI 5 mM glucose + 10% dialyzed FBS, 0.00234 µM	117	117	102
RPMI 5 mM glucose + 10% dialyzed FBS, 0.00702 µM	123	119	109
RPMI 5 mM glucose + 10% dialyzed FBS, 0.0211 µM	116	123	119
RPMI 5 mM glucose + 10% dialyzed FBS, 0.0632 µM	120	123	94.9
RPMI 5 mM glucose + 10% dialyzed FBS, 0.19 µM	119	119	118
RPMI 5 mM glucose + 10% dialyzed FBS, 0.569 µM	125	121	122
RPMI 5 mM glucose + 10% dialyzed FBS, 1.71 µM	155	126	112
RPMI 5 mM glucose + 10% dialyzed FBS, 5.12 µM	145	111	96.9
RPMI 5 mM glucose + 10% dialyzed FBS, 15.4 µM	136	99.4	90.4
RPMI 5 mM glucose + 10% dialyzed FBS, 46.1 µM	98	59.2	62.8

AUC of viability dose-response curve
Conditions	NOMO1 [4]	P12-Ichikawa [5]	SEM cells [6]
HPLM + 10% dialyzed FBS	472	463	439
RPMI 5 mM glucose + 10% FBS	461	463	455
RPMI 5 mM glucose + 10% dialyzed FBS	442	455	454

— the supplement of paper PMC11451515
